In patent publication US10676746B2, “Methods for identifying therapeutic targets and treating monitoring cancers” (Fred Hutchinson Cancer Research Center, priority 2013, dated 2020):
pIC50: −log10 of the molar value. “Also recorded” adds a separate entry of the source.

How the values were obtained:
MSCC cells = assay: Dose-response curves with kinase inhibitors, CellTiterGlo viability, MSCC cells; assay type: cell-based, murine; details: for pIC50: Mus musculus
Experimental: (§1) Kinase inhibition dose response curves were performed with six kinase inhibitors (MK-1775 (a.k.a., […]), TAE684, PI828, PIK93, PP2, PF-562271) against kinase targets (WEE1, ALK, PI3K, PIK4CB, FYN, FAK (ILK surrogate)), respectively. Kinase inhibitors: MK-1775 (S1525), PIK93 (S1489), TAE684 (S1108) were obtained from Selleck Chemicals (Houston, Tex.); PI828 (2814), PP2 (1407) from Tocris Bioscience (Mpls, Minn.), and PF-562271 from Synkinase (San Diego, Calif.). All HNSCC (UMSCC-17A, UM-SCC47A, PCI-15A, PCI-15B, UM-SCC14A, UM-SCC14C) and MSCC (CK1: p53+/+ and CK4: p53−/−) cells were plated at ˜5-10×10^3 cells/100 μl per well, and incubated at 37° C. for ˜24 hours on 96-well assay plates (Corning Inc.). Serial dilutions of the kinase inhibitors and vehicle control (DMSO) were prepared in 1 mL assay blocks at 3× working concentration to generate dose-response curves ranging from 100 μM to 0.03 μM. All serial dilutions were prepared using cell culture media. Approximately 72 hours post-treatment, cells were assessed for metabolic activity via ATP using CellTiterGlo (Promega), following the protocol outlined by the manufacturer utilizing an FLx800, and/or a Synergy H4 Hybrid multi-mode reader (Biotek). All assays were performed in triplicate and normalized to wells with no treatment. Dose-response curves and IC50 values were generated using GraphPad Prism Version 5 (Parameters: nonlinear regression fit; equation=log (inhibitor) vs. response−variable slope (four parameters); single constraint).

HNSCC cells [1] = assay: Caspase-3/7 dependent apoptosis assay; assay type: cell-based, human; details: p53 mutant cells
Experimental: (§2) Mitotic entry was assessed as previously described (Aarts, M. et al, Cancer Discov 2012; 2:524-39). Briefly, HNSCC cells (PCI-15B, UMSCC-17A) were treated with 1 μM MK-1775 for 8 and 24 hours, and all cells were harvested, washed, and incubated with rabbit monoclonal antibody to phospho-histone H3 (Serine10) (Cell Signaling Technology, Cat. No. 3465, Danvers, Mass.) for 2 hours at RT, washed, and DNA stained with 20 μg/ml propidium iodide, RNaseA in PBS (Sigma-Aldrich; Cat. Nos. P4170, R6513). Flow cytometric analysis was performed utilizing a BD FACS Canto II, and profiles analyzed with BD Cell Quest software (Becton Dickinson, CA). Caspase-3/7 dependent apoptosis was assessed as per protocol (Promega, Cat. No. G8091) utilizing a SynergyH4 Hybrid Reader (Biotek, VT). AUCs were calculated for all treatments and vehicle (DMSO) for all cell lines utilizing two measurements over a 48-hour period with three concentrations (30 nm, 100 nm, 1 μM) of MK-1775.

[2] = set-up: species or system mice; details: mouse, in vivo
Experimental: PCI-15B cells were inoculated subcutaneously into the right flanks of 28 eight-week old NOD/SCID IL2 gamma null mice (NSG) provided by the Olson laboratory at the Fred Hutchinson Cancer Research Center. When tumors reached a palpable mass of >50 mm^3, mice were randomly assigned into four treatment groups of seven mice each and all measurements and treatment regimens were carried out using a double-blind protocol. The WEE1 inhibitor MK-1775 (S1525-Selleck Chemicals, Houston, Tex.) was delivered by oral gavage (30 mg/kg) twice per week for 4 weeks in dimethylsulfoxide in 0.5% methylcellulose (M0512, Sigma Aldrich) in a 1:14 suspension. Cisplatin (P4394, cis-diammineplatinum (II) dichloride, Sigma Aldrich) was delivered via intra-peritoneal injection (4.0 mg/kg) once a week for 4 weeks. The volume of the implanted tumor was measured weekly with calipers and tumor volumes calculated using the formula: V=L×W^2/2; in which V, volume (mm^3); L, largest diameter (mm); W, smallest diameter (mm). All animal protocols were approved by the Fred Hutchinson Cancer Research Center Laboratory Animal Care and Use Committee.

PCI-15B xenografts = assay: Xenograft tumor model; assay type: in vivo, mice
HNSCC cells [3] = assay: Dose-response curves with kinase inhibitors, CellTiterGlo viability, HNSCC cells; assay type: cell-based, human; details: for pIC50: Homo sapiens; for effect on viability of p53 mutant HNSCC cells: autologous pairs UMSCC-14A, UMSCC-14C, PCI-15A, PCI-15B, result in words
Experimental: as §1

[4] = system: HNSCC cells (PCI-15B, UMSCC-17A); assay: Mitotic entry and cell cycle analysis by flow cytometry; assay type: cell-based, human; details: for mitotic entry, phospho-histone H3 (serine 10): 1 μM
Experimental: as §2

WEE1 = assay: Immunoblotting of xenograft tumor lysates; assay type: in vivo; details: oral MK-1775 treated mice vs vehicle
Source text: Tumor tissues were minced and homogenized on ice in M-PER Mammalian Protein Extraction Reagent supplemented with Halt Protease and Phosphatase Inhibitor Cocktail (Thermo Fisher Scientific). Extracted proteins were quantified by a BCA protein assay (Thermo Fisher Scientific). […] Anti-WEE1 (Cat. No. 4936), anti-phospho-WEE1 ([…]) (Cat. No. 4910), anti-CDC2 (Cat. No. 9112), and anti-phospho-CDC2 (Tyr15) (Cat. No. 4539) antibodies were purchased from Cell Signaling Technology (Danvers, Mass.). The secondary antibodies used were ZyMaxTM horseradish peroxidase (HRP) conjugated goat-anti-rabbit IgG (Life Technologies). HRP was detected with SuperSignal West Pico Chemiluminescent Substrate kit (Thermo Fisher Scientific).

[5] = p53−/− (p53 deficient) MSCC cells

NC(=O)Nc1cc(-c2cccc(F)c2)sc1C(=O)N[C@H]1CCCNC1 [AZD7762]
pIC50 (MSCC cells; p53 wild type MSCC cells): 5.66 | pIC50 (MSCC cells; [5]): 6.89

C=CCn1c(=O)c2cnc(Nc3ccc(N4CCN(C)CC4)cc3)nc2n1-c1cccc(C(C)(C)O)n1 [MK-1775]
apoptotic marker caspase 3/7 (HNSCC cells [1]): activation | pIC50 (MSCC cells; p53 wild type MSCC cells): 5.35 | pIC50 (MSCC cells; [5]): 6.66 | IC50 lower in p53−/− MSCC cells compared to p53 wild type cells (MSCC cells; p53−/− vs p53 wild type MSCC): 20 fold | tolerability of dosing regime [2]: well-tolerated | inhibition of growth of HNSCC tumors as compared to vehicle (PCI-15B xenografts; 30 mg/kg oral gavage twice weekly, 4-week protocol): 66% | pIC50 (HNSCC cells [3]; UMSCC14A, p53 mutant UMSCC-14A and UMSCC-14C cells and p53 wild type UMSCC-47 cells (intermediate)): 5.96 to 6.24 | pIC50 (HNSCC cells [3]; p53 mutant PCI-15A and PCI-15B HNSCC cells): 6.77 to 6.85 | pIC50 (HNSCC cells [3]; p53 wild type UMSCC-17A cells): 5.35 | effect on viability of p53 mutant HNSCC cells (HNSCC cells [3]): sensitive; also recorded: impairs viability | 4N DNA content ([4]; p53 mutant cells): loss | subG1 DNA content ([4]; p53 mutant cells): increase | mitotic entry, phospho-histone H3 (serine 10) ([4]; p53 mutant cells (PCI-15B)): unscheduled mitotic entry | mitotic entry, phospho-histone H3 (serine 10) ([4]; p53 wild type cells (UMSCC-17A)): not | phosphorylation of WEE1 in tumor lysates (WEE1): reduced phosphorylation | phosphorylation of WEE1 substrate CDC2 in tumor lysates (WEE1): reduced phosphorylation

CN(c1ncccc1CNc1nc(Nc2ccc3c(c2)CC(=O)N3)ncc1C(F)(F)F)S(C)(=O)=O [PF-562271]
effect on viability of p53 mutant HNSCC cells (HNSCC cells [3]): sensitive; also recorded: impairs viability

Nc1ccc(-c2cccc3c(=O)cc(N4CCOCC4)oc23)cc1 [PI828]
effect on viability of p53 mutant HNSCC cells (HNSCC cells [3]): impairs viability

CC(=O)Nc1nc(C)c(-c2ccc(Cl)c(S(=O)(=O)NCCO)c2)s1 [PIK93]
effect on viability of p53 mutant HNSCC cells (HNSCC cells [3]): sensitive; also recorded: impairs viability

CC(C)(C)n1nc(-c2ccc(Cl)cc2)c2c(N)ncnc21 [PP2]
effect on viability of p53 mutant HNSCC cells (HNSCC cells [3]): impairs viability

COc1cc(N2CCC(N3CCN(C)CC3)CC2)ccc1Nc1ncc(Cl)c(Nc2ccccc2S(=O)(=O)C(C)C)n1 [TAE684]
effect on viability of p53 mutant HNSCC cells (HNSCC cells [3]): sensitive; also recorded: impairs viability

N.N.[Cl][Pt][Cl] [cisplatin, cis-diammineplatinum (II) dichloride]
tumor regression (reduction) (PCI-15B xenografts; cisplatin 4.0 mg/kg i.p. once a week, 4 weeks, MK-1775 given 24 hours after cisplatin): 60%
